According to patent US11006626B2, “Compounds for protection of cells” (Sulfateq B.V., priority 2012, dated 2021):

Experiments:
apherese blood platelets = experiment: Apheresis platelets stored with Sul 136, platelet aggregation (Platelet Aggregation Profiler PAP 8); format: cell-based; settings: for Platelet aggregation ADP (%) / Platelet aggregation Collagen (%): stored at 4° C. with Sul 136
Experimental: 300 μM suspension of Sul 136 is added with a procedure, which keeps the bag content sterile and the Sul 136 is kept in suspension by frequent whirling and stored at 37° C. before it is added to the freshly harvested platelets. The Sul 136 suspension is added to three platelet bags directly from the bag. After addition, the content of the platelet bag is gently mixed. After 2 hours the first sample is drawn with a seal-docked sample bag. The sample bag is disconnected by welding and from this sample bag the samples are taken for hematology analyzing, aggregometer tests and the flow-cytometry tests. Swirling in the bag is reported by experience of the laboratory worker in the standard format. Platelets without Sul 136 put on a flatbed shaker and stored at room temperature were used as control. Another control is stored at 4° C. Platelet samples in which Sul 136 is added, are stored without shaking in a refrigerator at 4° C.
Platelet aggregation was measured according to Platelet Aggregation Profiler PAP 8 (Mölab) using all reagents from Mölab.
3 ml platelet concentrate was centrifuged at 3000 RPM to get PPP. 1800 μl PPP and 600 μl PRP were mixed.
225 μl PRP was brought in test tube with magnetic stirrer. 225 μl PPP+25 μl aquadest was brought in test tube without magnetic stirrer. PPP was used for basis. PRP was put during 2 min at 37° C. on a roller. Measurement with PRP in aggregometer was started after 30 seconds with 25 μl inductor. Measurement was performed during 6 min.

PRP platelets = PRP platelets stored at 4° C. with Sul 136, number of cells that survived; format: cell-based; settings: for number of cells in % relative to the number of cells at time 0: 4° C.
Experimental: […] The blood platelets with the compound were then stored at 4° C.
and tested as follows: • The color and coagulation properties were visually analysed. • The thrombocyte cells that survived were counted and it was evaluated whether the thrombocytes were aggregated. • It was evaluated if the thrombocytes still were able to function after stimulation by the addition of ADP or under influence of collagen in a 96 well plate. • The adhesion was evaluated, meaning the ability of the platelets to bind collagen in a 6 well plate preincubated with collagen. • Via an ELISA assay, it was evaluated whether thromboxane was secreted from the platelets. Thromboxane facilitates aggregation and is produced by activated blood platelets.
PRP platelets were tested with the addition of Sul 136. […] The number of cells are given in % relative to the number of cells at time 0. 66% of the platelets stored at room temperature survived after 216 hours. Only 42.3% of the cells stored at 4° C. survived after 216 hours.

How did the “Platelet aggregation ADP (%)” value (apherese blood platelets; Donor 2, Day 1) turn out when `Cc1c(C)c2c(c(C)c1O)CCC(C)(C(=O)N1CCN(CC(=O)O)CC1)O2` (racemic) [SUL - 136, 2-(4-(6-hydroxy-2,5,7,8-tetramethylchroman-2-carbonyl)piperazin-1-yl)acetic acid] was run?
Its value is 0%.

And the “Platelet aggregation Collagen (%)” value (apherese blood platelets; Donor 2, Day 1)?
The value was 0%.

And the “Platelet aggregation ADP (%)” value (apherese blood platelets; Donor 2, Day 2)?
Its value is 0%.

And the “Platelet aggregation Collagen (%)” value (apherese blood platelets; Donor 2, Day 2)?
The value was 0%.

What about the “Platelet aggregation ADP (%)” value (apherese blood platelets; Donor 2, Day 3) of the same molecule?
Its value is 0%.

And the “Platelet aggregation Collagen (%)” value (apherese blood platelets; Donor 2, Day 3)?
Its value is 4%.

And the “Platelet aggregation ADP (%)” value (apherese blood platelets; Donor 2, Day 5)?
The value was 0%.

What about the “Platelet aggregation Collagen (%)” value (apherese blood platelets; Donor 2, Day 5) of the same molecule?
Its value is 0%.

And the “Platelet aggregation ADP (%)” value (apherese blood platelets; Donor 2, Day 8)?
The value was 0%.

And the “Platelet aggregation Collagen (%)” value (apherese blood platelets; Donor 2, Day 8)?
Its value is 0%.

And the “Platelet aggregation ADP (%)” value (apherese blood platelets; Donor 2, Day 10)?
The value was 0%.

What about the “Platelet aggregation Collagen (%)” value (apherese blood platelets; Donor 2, Day 10) of the same molecule?
The value was 0%.

What about the “Platelet aggregation ADP (%)” value (apherese blood platelets; Donor 2, Day 12) of the same molecule?
The value was 0%.

And the “Platelet aggregation Collagen (%)” value (apherese blood platelets; Donor 2, Day 12)?
The value was 5%.

And the “Platelet aggregation ADP (%)” value (apherese blood platelets; Donor 2, Day 19)?
Its value is 0%.

And the “Platelet aggregation Collagen (%)” value (apherese blood platelets; Donor 2, Day 19)?
Its value is 0%.

And the “Platelet aggregation ADP (%)” value (apherese blood platelets; Donor 3, Day 1)?
Its value is 0%.

And the “Platelet aggregation Collagen (%)” value (apherese blood platelets; Donor 3, Day 1)?
The value was 0%.

What about the “Platelet aggregation ADP (%)” value (apherese blood platelets; Donor 3, Day 2) of the same molecule?
Its value is 0%.

What about the “Platelet aggregation Collagen (%)” value (apherese blood platelets; Donor 3, Day 2) of the same molecule?
The value was 0%.

What about the “Platelet aggregation ADP (%)” value (apherese blood platelets; Donor 3, Day 3) of the same molecule?
Its value is 0%.

And the “Platelet aggregation Collagen (%)” value (apherese blood platelets; Donor 3, Day 3)?
Its value is 0%.

And the “Platelet aggregation ADP (%)” value (apherese blood platelets; Donor 3, Day 5)?
The value was 6%.

And the “Platelet aggregation Collagen (%)” value (apherese blood platelets; Donor 3, Day 5)?
The value was 0%.

What about the “Platelet aggregation ADP (%)” value (apherese blood platelets; Donor 3, Day 8) of the same molecule?
Its value is 0%.

What about the “Platelet aggregation Collagen (%)” value (apherese blood platelets; Donor 3, Day 8) of the same molecule?
Its value is 0%.

What about the “Platelet aggregation ADP (%)” value (apherese blood platelets; Donor 3, Day 10) of the same molecule?
Its value is 0%.

What about the “Platelet aggregation Collagen (%)” value (apherese blood platelets; Donor 3, Day 10) of the same molecule?
Its value is 0%.

And the “Platelet aggregation ADP (%)” value (apherese blood platelets; Donor 3, Day 12)?
The value was 0%.

What about the “Platelet aggregation Collagen (%)” value (apherese blood platelets; Donor 3, Day 12) of the same molecule?
The value was 8%.

And the “Platelet aggregation ADP (%)” value (apherese blood platelets; Donor 3, Day 19)?
Its value is 0%.

And the “Platelet aggregation Collagen (%)” value (apherese blood platelets; Donor 3, Day 19)?
Its value is 0%.

What about the “platelet aggregation upon stimulation with collagen and ADP” value (apherese blood platelets; donor 1, day 12 and day 19, stored at 4° C.) of the same molecule?
The value was “restored”.

And the “Platelet aggregation ADP (%)” value (apherese blood platelets; donor 1, Day 1)?
Its value is 0%.

What about the “Platelet aggregation Collagen (%)” value (apherese blood platelets; donor 1, Day 1) of the same molecule?
The value was 0%.

And the “Platelet aggregation ADP (%)” value (apherese blood platelets; donor 1, Day 2)?
The value was 0%.

What about the “Platelet aggregation Collagen (%)” value (apherese blood platelets; donor 1, Day 2) of the same molecule?
The value was 0%.

And the “Platelet aggregation ADP (%)” value (apherese blood platelets; donor 1, Day 3)?
The value was 0%.

And the “Platelet aggregation Collagen (%)” value (apherese blood platelets; donor 1, Day 3)?
Its value is 0%.

What about the “Platelet aggregation ADP (%)” value (apherese blood platelets; donor 1, Day 5) of the same molecule?
The value was 0%.

And the “Platelet aggregation Collagen (%)” value (apherese blood platelets; donor 1, Day 5)?
The value was 0%.

And the “Platelet aggregation ADP (%)” value (apherese blood platelets; donor 1, Day 8)?
Its value is 0%.

And the “Platelet aggregation Collagen (%)” value (apherese blood platelets; donor 1, Day 8)?
Its value is 0%.

And the “Platelet aggregation ADP (%)” value (apherese blood platelets; donor 1, Day 10)?
Its value is 0%.

What about the “Platelet aggregation Collagen (%)” value (apherese blood platelets; donor 1, Day 10) of the same molecule?
The value was 0%.

And the “Platelet aggregation ADP (%)” value (apherese blood platelets; donor 1, Day 12)?
Its value is 12%.

And the “Platelet aggregation Collagen (%)” value (apherese blood platelets; donor 1, Day 12)?
Its value is 17%.

What about the “Platelet aggregation ADP (%)” value (apherese blood platelets; donor 1, Day 19) of the same molecule?
The value was 31%.

And the “Platelet aggregation Collagen (%)” value (apherese blood platelets; donor 1, Day 19)?
The value was 32%.

And the “number of cells in % relative to the number of cells at time 0” value (PRP platelets; 10 min 0.001 mM, 0 h)?
The value was 100%.

And the “number of cells in % relative to the number of cells at time 0” value (PRP platelets; 10 min 0.001 mM, 72 h)?
Its value is 58.9%.

And the “number of cells in % relative to the number of cells at time 0” value (PRP platelets; 10 min 0.001 mM, 216 h)?
Its value is 55.1%.

And the “number of cells in % relative to the number of cells at time 0” value (PRP platelets; 10 min 0.01 mM, 0 h)?
Its value is 100%.

What about the “number of cells in % relative to the number of cells at time 0” value (PRP platelets; 10 min 0.01 mM, 72 h) of the same molecule?
The value was 66.0%.

And the “number of cells in % relative to the number of cells at time 0” value (PRP platelets; 10 min 0.01 mM, 216 h)?
Its value is 52.1%.

And the “number of cells in % relative to the number of cells at time 0” value (PRP platelets; 10 min 0.1 mM, 0 h)?
Its value is 100%.

And the “number of cells in % relative to the number of cells at time 0” value (PRP platelets; 10 min 0.1 mM, 72 h)?
The value was 55.9%.

What about the “number of cells in % relative to the number of cells at time 0” value (PRP platelets; 10 min 0.1 mM, 216 h) of the same molecule?
Its value is 50.8%.

And the “number of cells in % relative to the number of cells at time 0” value (PRP platelets; 10 min 1 mM, 0 h)?
Its value is 100%.

And the “number of cells in % relative to the number of cells at time 0” value (PRP platelets; 10 min 1 mM, 72 h)?
Its value is 59.1%.

And the “number of cells in % relative to the number of cells at time 0” value (PRP platelets; 10 min 1 mM, 216 h)?
Its value is 59.3%.

What about the “number of cells in % relative to the number of cells at time 0” value (PRP platelets; 10 min 10 mM, 0 h) of the same molecule?
The value was 100%.

And the “number of cells in % relative to the number of cells at time 0” value (PRP platelets; 10 min 10 mM, 72 h)?
The value was 64.8%.

And the “number of cells in % relative to the number of cells at time 0” value (PRP platelets; 10 min 10 mM, 216 h)?
Its value is 47.9%.

And the “number of cells in % relative to the number of cells at time 0” value (PRP platelets; 60 min 0.001 mM, 0 h)?
Its value is 100%.

And the “number of cells in % relative to the number of cells at time 0” value (PRP platelets; 60 min 0.001 mM, 72 h)?
Its value is 83.8%.

What about the “number of cells in % relative to the number of cells at time 0” value (PRP platelets; 60 min 0.001 mM, 216 h) of the same molecule?
Its value is 86.1%.

What about the “number of cells in % relative to the number of cells at time 0” value (PRP platelets; 60 min 0.01 mM, 0 h) of the same molecule?
The value was 100%.

And the “number of cells in % relative to the number of cells at time 0” value (PRP platelets; 60 min 0.01 mM, 72 h)?
The value was 82.9%.

And the “number of cells in % relative to the number of cells at time 0” value (PRP platelets; 60 min 0.01 mM, 216 h)?
The value was 94.8%.

What about the “number of cells in % relative to the number of cells at time 0” value (PRP platelets; 60 min 0.1 mM, 0 h) of the same molecule?
The value was 100%.

And the “number of cells in % relative to the number of cells at time 0” value (PRP platelets; 60 min 0.1 mM, 72 h)?
Its value is 76.3%.

What about the “number of cells in % relative to the number of cells at time 0” value (PRP platelets; 60 min 0.1 mM, 216 h) of the same molecule?
The value was 77.6%.

What about the “number of cells in % relative to the number of cells at time 0” value (PRP platelets; 60 min 1 mM, 0 h) of the same molecule?
The value was 100%.

And the “number of cells in % relative to the number of cells at time 0” value (PRP platelets; 60 min 1 mM, 72 h)?
The value was 29.9%.

And the “number of cells in % relative to the number of cells at time 0” value (PRP platelets; 60 min 1 mM, 216 h)?
Its value is 62.9%.

And the “number of cells in % relative to the number of cells at time 0” value (PRP platelets; 60 min 10 mM, 0 h)?
Its value is 100%.

And the “number of cells in % relative to the number of cells at time 0” value (PRP platelets; 60 min 10 mM, 72 h)?
The value was 51.8%.

What about the “number of cells in % relative to the number of cells at time 0” value (PRP platelets; 60 min 10 mM, 216 h) of the same molecule?
Its value is 43.4%.

What about the “platelets survived after storage” value (PRP platelets; storage of 72 and 216 hours at 4° C., vs. no compound) of the same molecule?
Its value is “substantial more platelets survived”.
